Measured values reported in US9492376B2, “Polymer-conjugated albumin hydrogels for controlled release of therapeutic agents” (TECHNION RESEARCH AND DEVELOPMENT FOUNDATION LTD., priority 2008, dated 2016).

Tests used:
[1] = Drug release from hydrogels, with diffusion model fitting; type: physicochemical; settings: for Average drug release (last 30 min), normalized amount: released from purified mono-PEGylated albumin hydrogels (10 kDa PEG), insulins fluorescein-labelled, FIG. 5
Description: Both LEVEMIR® and […]® were fluorescently labelled by 5 mg/ml NHS-fluorescein (Pierce, Illinois, U.S.A.) in DMSO, with a molar ratio of 15:1 NHS-fluorescein to insulin. The solution was allowed to react for 5 hr in 4° C. and dialysed (Cellu-Sep H1, 1-kDaMW cutoff, Texas, U.S.A.) against PBS with 0.1% (w/v) of sodium azide with DMSO in decreasing concentrations of DMSO (10-0%) for 1 week.
The drug was saturated in disk-shaped hydrogel constructs prepared from PEG-DA or PEGylated proteins, that were formed into hydrogels by photopolymerization using 0.1% (w/v) Irgacure™ 2959 (Ciba Specialty Chemicals, Basel, Switzerland) and UV light (λ=365 nm, 4-5 mW/cm^2) exposure for 5 min as described elsewhere (Gonen-Wadmany et al., 2007). The hydrogel constructs were produced from six different hydrogel precursor solutions, including: (i) purified mono-PEGylated albumin in PEG-DA; (ii) non-purified mono-PEGylated albumin (containing wild-type and multi-PEGylated albumin) in PEG-DA; (iii) multi-PEGylated albumin in PEG-DA; (iv) wild-type albumin in PEG-DA; (v) PEG-DA; (vi) PEGylated fibrinogen in PEG-DA. In all cases, the protein (albumin or fibrinogen) concentration was 8.5 mg/ml, and the PEG-DA was added to reach a total PEG concentration of 7%.
Drug release from the hydrogel constructs into the supernatant was measured fluorescently (excitation at […]) in PBS with 0.1% (w/v) of sodium azide under constant agitation at 37° C. using a Varioscan plate-reader (Thermo Electron Corporation, Finland). (In the case of degradation experiments, 0.01 mg/ml of Trypsin (MP Biomedicals) was added to the PBS solution.) The raw data was normalized by the fluorescence intensity measured after 24 hours. The constructs were liquefied by homogenization or sonication (for multi-PEGylated albumin and fibrinogen), or by chemical means using 0.1 M NaOH, and the drug content was quantified to confirm complete drug release.
The drug release profiles were compared with a known model of diffusion-based release kinetics. […]

serum albumin = serum albumin (Homo sapiens, UniProt P02768); settings: cited from earlier work
[2] = Equilibrium dialysis of Warfarin with wild-type or PEGylated albumin; type: binding; settings: result in words; for affinity of Warfarin to the protein by equilibrium dialysis: equilibrium at about 24 hr, compared to wild-type albumin
Description: The two chambers of the device were separated by a dialysis membrane (12-14 kDa MW cutoff) and drug diffusion was measured by fluorescence spectroscopy. One dialysis chamber of the device was filled with 25 ml PBS solution containing 0.1% (w/v) of sodium azide (Fluka).

[3] = Warfarin fluorescence and albumin binding; settings: for Fluorescence Intensity Ratio Comparing to Warfarin Alone: 5 mg/ml protein in PBS, 10:1 molar ratio albumin to Warfarin, ~5 hours incubation, excitation 320 nm, emission 385 nm, n = 6
Description: The mixture was incubated for ˜5 hours before reading fluorescence emission (λ=385 nm) at a 320 nm excitation wavelength using a Varioscan spectral scanning multimode reader (Thermo Electron Corporation, Vantaa, Finland).

| Compound | Fluorescence Intensity Ratio Comparing to Warfarin Alone [3] | Average drug release (last 30 min), normalized amount [1] | affinity of Warfarin to the protein by equilibrium dialysis [2] | other results |
| --- | --- | --- | --- | --- |
| COc1ccc2cc([C@H](C)C(=O)O)ccc2c1 [Naproxen] |  | 0.66±0.07 |  | release kinetics of drugs compared ([1]; from purified mono-PEGylated albumin hydrogels (10 kDa PEG), p-value<0.05): released significantly faster |
| ACTRAPID®: regular human insulin formulation, 100 IU/ml, Novo Nordisk; no binding affinity to serum albumin |  | 0.57±0.14 |  | binding affinity to serum albumin (serum albumin): no binding affinity |
| PEG-Alb 4 kDa: bovine serum albumin multi-PEGylated with linear 4 kDa PEG-DA, in solution | 1.5 ± 0.4 |  | significantly less affinity |  |

Second part, led by results:

| Fluorescence Intensity Ratio Comparing to Warfarin Alone [3] | Compound | Average drug release (last 30 min), normalized amount [1] | affinity of Warfarin to the protein by equilibrium dialysis [2] | other results |
| --- | --- | --- | --- | --- |
| 2.8 ± 0.2 | Albumin: bovine serum albumin (MP Biomedicals), non-PEGylated control in solution |  |  | percent of drug (Warfarin) transported through the dialysis membrane at equilibrium ([2]; about 24 hr, albumin to Warfarin 5:1, room temperature): lowest; increase in Warfarin fluorescence when bound to albumin ([3]; bovine albumin, versus unbound Warfarin): 2.8 fold |
| 1.6 ± 0.3 | PEG-Alb 1.5 kDa: bovine serum albumin multi-PEGylated with linear 1.5 kDa PEG-DA, in solution |  | significantly less affinity |  |
| 1.5 ± 0.5 | PEG-Alb 10 kDa: bovine serum albumin multi-PEGylated with linear 10 kDa PEG-DA, in solution |  |  |  |
